What was measured:
Assay type in all cases: in vivo
[1] = tested on: Abutilon theophrasti (ABUTH); test: A. Herbicidal pre-emergence efficacy, ABUTH; conditions: 1280 g/ha; scored visually after about 3 weeks vs untreated controls
Summary of the method: (§1)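 Applied before emergence onto covering soil at rates of 1280 g/ha or less, using 600 L/ha spray water with 0.5% additive. Scoring: visual % efficacy after ~3 weeks, greenhouse.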

[2] = tested on: Alopecurus myosuroides (ALOMY); test: A. Herbicidal pre-emergence efficacy, ALOMY; conditions: 1280 g/ha; scored visually after about 3 weeks vs untreated controls
Text: (§2) Seeds of mono- and dicotyledonous weed plants were placed in plastic pots in sandy loam soil (doubly sown with one species each of mono- or dicotyledonous weed plants per pot) and covered with soil. The compounds of the invention, formulated in the form of wettable powders (WP) or as emulsion concentrates (EC), were then applied onto the surface of the covering soil as aqueous suspension or emulsion with addition of 0.5% additive at a water application rate of 600 liters per hectare (converted). After the treatment, the pots were placed in a greenhouse and kept under good growth conditions for the test plants. After about 3 weeks, the efficacy of the preparations was scored visually in comparison with untreated controls as percentages.
(§3) For example, • 100% efficacy=plants have died, • 0% efficacy=like untreated control plants.
(§4) Tables A1a to A12c below show the effects of selected compounds of the general formula (I) according to table 1 on various harmful plants at an application rate corresponding to 1280 g/ha or less, which were obtained by the experimental procedure mentioned above.

[3] = tested on: Digitaria sanguinalis (DIGSA); test: A. Herbicidal pre-emergence efficacy, DIGSA; conditions: scored visually after about 3 weeks vs untreated controls
Summary of the method: as §1

[4] = tested on: Echinochloa crus-galli (ECHCG); test: A. Herbicidal pre-emergence efficacy, ECHCG; conditions: 1280 g/ha; scored visually after about 3 weeks vs untreated controls
Summary of the method: as §1

Kochia scoparia (KCHSC) [5] = test: A. Herbicidal pre-emergence efficacy, KCHSC; conditions: pre-emergence, dosage 1280 g/ha
Summary of the method: as §1

Lolium rigidum (LOLRI) = test: A. Herbicidal pre-emergence efficacy, LOLRI; conditions: dosage 1280 g/ha
Summary of the method: as §1

[6] = tested on: Matricaria inodora (MATIN); test: A. Herbicidal pre-emergence efficacy, MATIN; conditions: pre-emergence, dosage 1280 g/ha
Text: as §2, §3, §4

Poa annua (POAAN) [7] = test: A. Herbicidal pre-emergence efficacy, POAAN
Summary of the method: as §1

Setaria viridis (SETVI) = test: A. Herbicidal pre-emergence efficacy, SETVI
Summary of the method: as §1

Stellaria media (STEME) [8] = test: A. Herbicidal pre-emergence efficacy, STEME; conditions: dosage 1280 g/ha
Summary of the method: as §1

Veronica persica (VERPE) [9] = test: A. Herbicidal pre-emergence efficacy, VERPE
Summary of the method: as §1

[10] = tested on: Amaranthus retroflexus (AMARE); test: A. Herbicidal pre-emergence efficacy, AMARE
Summary of the method: as §1

[11] = tested on: Abutilon theophrasti (ABUTH); test: B. Herbicidal post-emergence efficacy, ABUTH; conditions: rated visually after about 3 weeks
Summary of the method: (§5)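 Post-emergence foliar spray, at application rates of 1280 g/ha or less, on one-leaf-stage plants 2–3 weeks post-sowing, using aqueous WP or EC suspensions with 0.5% additive at 600 L/ha. Visual percent efficacy relative to untreated plants scored roughly 3 weeks later in the greenhouse.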

[12] = tested on: Echinochloa crus-galli (ECHCG); test: B. Herbicidal post-emergence efficacy, ECHCG; conditions: 1280 g/ha, rated visually after about 3 weeks
Summary of the method: as §5

Kochia scoparia (KCHSC) [13] = test: B. Herbicidal post-emergence efficacy, KCHSC; conditions: 1280 g/ha
Summary of the method: as §5

Poa annua (POAAN) [14] = test: B. Herbicidal post-emergence efficacy, POAAN; conditions: 1280 g/ha
Summary of the method: as §5

Stellaria media (STEME) [15] = test: B. Herbicidal post-emergence efficacy, STEME
Summary of the method: as §5

Veronica persica (VERPE) [16] = test: B. Herbicidal post-emergence efficacy, VERPE
Summary of the method: as §5

[17] = tested on: Amaranthus retroflexus (AMARE); test: B. Herbicidal post-emergence efficacy, AMARE
Summary of the method: as §5

Cc1cccc(Oc2ncc(Br)cn2)c1OS(=O)(=O)CCCC(F)(F)F [Example I-35]
Pre-emergence efficacy against ABUTH [1]: 100% | Pre-emergence efficacy against ALOMY [2]: 90% | Pre-emergence efficacy against DIGSA ([3]; 320 g/ha): 90% | Pre-emergence efficacy against DIGSA ([3]; 1280 g/ha): 100% | Pre-emergence efficacy against ECHCG [4]: 100% | Pre-emergence efficacy against KCHSC (Kochia scoparia (KCHSC) [5]): 90% | Pre-emergence efficacy against LOLRI (Lolium rigidum (LOLRI)): 100% | Pre-emergence efficacy against MATIN [6]: 100% | Pre-emergence efficacy against POAAN (Poa annua (POAAN) [7]; dosage 320 g/ha): 100% | Pre-emergence efficacy against POAAN (Poa annua (POAAN) [7]; dosage 1280 g/ha): 100% | Pre-emergence efficacy against SETVI (Setaria viridis (SETVI); dosage 320 g/ha): 100% | Pre-emergence efficacy against SETVI (Setaria viridis (SETVI); dosage 1280 g/ha): 100% | Pre-emergence efficacy against STEME (Stellaria media (STEME) [8]): 100% | Pre-emergence efficacy against VERPE in % (Veronica persica (VERPE) [9]; 320 g/ha): 90% | Pre-emergence efficacy against VERPE in % (Veronica persica (VERPE) [9]; 1280 g/ha): 100% | Pre-emergence efficacy against AMARE in % ([10]; 320 g/ha): 90% | Pre-emergence efficacy against AMARE in % ([10]; 1280 g/ha): 100% | Post-emergence efficacy against ABUTH in % ([11]; 320 g/ha): 100% | Post-emergence efficacy against ABUTH in % ([11]; 1280 g/ha): 100% | Post-emergence efficacy against ECHCG in % [12]: 90% | Post-emergence efficacy against KCHSC (Kochia scoparia (KCHSC) [13]): 100% | Post-emergence efficacy against POAAN (Poa annua (POAAN) [14]): 90% | Post-emergence efficacy against STEME (Stellaria media (STEME) [15]; 80 g/ha): 90% | Post-emergence efficacy against STEME (Stellaria media (STEME) [15]; 320 g/ha): 100% | Post-emergence efficacy against STEME (Stellaria media (STEME) [15]; 1280 g/ha): 100% | Post-emergence efficacy against VERPE (Veronica persica (VERPE) [16]; 80 g/ha): 90% | Post-emergence efficacy against VERPE (Veronica persica (VERPE) [16]; 320 g/ha): 90% | Post-emergence efficacy against VERPE (Veronica persica (VERPE) [16]; 1280 g/ha): 100% | Post-emergence efficacy against AMARE ([17]; 320 g/ha): 90% | Post-emergence efficacy against AMARE ([17]; 1280 g/ha): 100%
